This is an account of results in US11517581B2, “Zika virus protease inhibitors and methods of use thereof” (priority 2017, dated 2022).

Converted amounts (≈) assume the structure as drawn.

The target of one series is ZIKV NS2B-NS3 protease (Zika virus, UniProt A0A024B7W1, DEL1468-1502). Format: biochemical. The settings on record: 10 μM substrate; for Effect of increasing drug concentrations on protease activity: 5 nM protease.
The test system of series [1] is ZIKV. The note with it: recently reported; cited from earlier work.
The subject of series [2] is ZIKV. The note with it: literature; cited from earlier work.
Series [3] can be described thus: Cell viability (MTT) assay in Vero cells. Format: cell-based. The settings on record: African green monkey. As to the method:
(§1) Briefly, Vero or Huh-7 cells (4×10^4 cells/well) were incubated with different concentrations of individual drug for 24 h, followed by the addition of 10 μl/well of 5 mg/ml MTT substrate. The monolayers were incubated as above for 4 h (away from light). Finally, 100 μl of 10% sodium dodecyl sulfate (SDS) with 0.01M HCl was added and further incubated at 37° C. with 5% CO2 overnight. […] Briefly, the drug compounds were diluted with serum-free MEM and added to confluent Vero cells in 96-well culture plates (4×10^4 cells/well) in triplicate for 2 h at 37° C. After incubation, the drug-containing media were removed, and ZIKV (multiplicity of infection, MOI=0.0002) was added together with fresh drug-compound media to each well. Following 1 h of adsorption at 37° C., the virus-compound mixture was removed and the cells were washed twice with MEM to remove unbound virus. Subsequently, media with antiviral compounds were added to the cells for further incubation for 6 days at 37° C. in a 5% CO2 humidified environment. CPE was examined by inverted light microscopy (Chan et al., 2016b). Thereafter, MTT substrate and SDS-HCl were added sequentially as mentioned above. The half maximal inhibitory concentration (IC50) and CC50 were calculated using Sigma plot (SPSS) in an Excel add-in ED50V10.

Series [4] can be described thus: Cell viability (MTT) assay in Huh-7 cells. Type of series: cell-based. The note with it: human. As to the method:
as §1

The test system of series [5] is ZIKV (Puerto Rico strain PRVABC59). Put plainly: Viral load reduction assay (qRT-PCR) in Vero cells. The settings on record: culture supernatants, Vero and Huh-7; data not shown. Format: cell-based, Zika virus.
Series [6] concerns ZIKV NS2B-NS3 protease (recombinant fusion, ZIKV-NS2B residues 49-95 and ZIKV-NS3 residues 1-170). Put plainly: Fluorescence-based protease inhibition assay. Format: biochemical, Zika virus. The note with it: 10 μM substrate, 5 nM protease. The source says:
The recombinant ZIKV NS2B-NS3 protease was produced as previously described with some modifications (Lei et al., 2016). Briefly, coding regions of the ZIKV-NS2B (residues 49-95) and ZIKV-NS3 (residues 1-170) genes were fused and cloned into the pET-28b(+) expression vector (Novagen, Merck & Co., New Jersey, USA). The plasmid was transformed into Escherichia coli strain BL21 (DE3) and overexpressed in 2×YT medium. When the OD600 of the culture reached 0.8, overexpression of the ZIKV NS2B-NS3 protease gene was induced for overnight by addition of 0.5 mM IPTG at 20° C. […] The purified protein was detected by Western blot using anti-His-tag antibodies. Concentration of protein was determined by Bradford protein assay kit (Bio-Rad Laboratories, California, USA) using bovine serum albumin as standard.
The recombinant ZIKV NS2B-NS3 protease was produced as previously described with some modifications (Lei et al., 2016). To detect ZIKV NS2B-NS3 protease activity, a fluorescence-based enzymatic assay was conducted in 96-well black micro-plates (Greiner Bio-One, Kremsmünster, Germany). […] The fluorescence signal from the released AMC was measured at 460 nm with excitation at 360 nm, using a VICTOR™ X3 multilabel plate reader (Perkin Elmer, Massachusetts, USA). […] After 10 min, the fluorescence intensity was measured. […]

The conditions of series [7]: oral and parenteral; cited from earlier work.

Sequence of ZIKV NS2B-NS3 protease (A0A024B7W1 1502-1672, added parts left off, stated change not applied): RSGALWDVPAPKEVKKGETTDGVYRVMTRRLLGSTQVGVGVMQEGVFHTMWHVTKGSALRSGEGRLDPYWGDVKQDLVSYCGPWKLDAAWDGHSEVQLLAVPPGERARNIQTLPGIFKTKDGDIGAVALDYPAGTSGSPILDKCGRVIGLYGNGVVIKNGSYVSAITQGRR

With Aprotinin [listing 1 of 2 here], the “IC50 (vs protease activity)” value on ZIKV NS2B-NS3 protease (5 nM ZIKV NS2B-NS3 protease, positive control) was 13.6 ± 1.1 KIU/ml.
In the case of `O=C(Nc1ccc([N+](=O)[O-])cc1Cl)c1cc(Cl)ccc1O` [Niclosamide], the “In vitro anti-ZIKV effects” value with ZIKV [1] is recorded as “in vitro anti-ZIKV effects”.
Regarding `N=C(N)NCCC[C@H](NC(=O)[C@@H]1CCCN1C(=O)[C@@H]1CSSCCC(=O)N[C@@H](Cc2ccc(O)cc2)C(=O)N[C@@H](Cc2ccccc2)C(=O)N[C@@H](CCC(N)=O)C(=O)N[C@@H](CC(N)=O)C(=O)N1)C(=O)NCC(N)=O` [Desmopressin acetate], the “Effect of increasing drug concentrations on protease activity” value (shortened to “Effect of increasing drug concentrations”) on ZIKV NS2B-NS3 protease is given as “dose-dependent reduction in protease activity”.
In the case of `CCN(CC)CCCC(C)Nc1ccnc2cc(Cl)ccc12` (centres unmarked) [Chloroquine], in the series with ZIKV [1], the “In vitro anti-ZIKV effects” value is “in vitro anti-ZIKV effects”.
On to `CC(C)OC(=O)[C@H](C)N[P@](=O)(OC[C@H]1O[C@@H](n2ccc(=O)[nH]c2=O)[C@](C)(F)[C@@H]1O)Oc1ccccc1` [Sofosbuvir], for which the “In vitro anti-ZIKV effects” value in the series with ZIKV [1] is given as “in vitro anti-ZIKV effects”. Further, the “Efficacy in animal models” value in the series on ZIKV [2] is reported as “effective in animal models”.
With `CC[C@H]1OC(=O)[C@H](C)[C@@H](O[C@H]2C[C@@](C)(OC)[C@@H](O)[C@H](C)O2)[C@H](C)[C@@H](O[C@@H]2O[C@H](C)C[C@H](N(C)C)[C@H]2O)[C@](C)(O)C[C@@H](C)CN(C)[C@H](C)[C@@H](O)[C@]1(C)O` [Azithromycin], in the series on ZIKV [1], the “In vitro anti-ZIKV effects” value is on record as “in vitro anti-ZIKV effects”.
In the case of `CO[C@H]1/C=C/O[C@@]2(C)Oc3c(C)c(O)c4c(O)c(c(/C=N/N5CCN(C)CC5)c(O)c4c3C2=O)NC(=O)/C(C)=C\C=C\[C@H](C)[C@H](O)[C@@H](C)[C@@H](O)[C@@H](C)[C@H](OC(C)=O)[C@@H]1C` [Rifampicin], on ZIKV NS2B-NS3 protease, the “Effect of increasing drug concentrations” value is reported as “dose-dependent reduction in protease activity”. In addition, the CC50 at 24 h in series [3] and in series [4] was 400 µg/mL (≈ 486 µM) throughout. Moreover, in series [5], the “Dose-dependent reduction in virus titer observed” value is “not”.
On to Aprotinin [listing 2 of 2 here], for which the “Reduction in protease activity with increasing concentrations” value in series [6] is on record as “blocked the protease cleavage activity”.
Consider `O=C(Nc1ccc([N+](=O)[O-])cc1Cl)c1cc(Cl)ccc1O` [niclosamide], for which the Solubility result in series [7] is “insoluble”.
Regarding `CCCCCCCCCC(=O)N[C@@H](Cc1c[nH]c2ccccc12)C(=O)N[C@H](CC(N)=O)C(=O)N[C@@H](CC(=O)O)C(=O)N[C@@H]1C(=O)NCC(=O)N[C@@H](CCCN)C(=O)N[C@@H](CC(=O)O)C(=O)N[C@H](C)C(=O)N[C@@H](CC(=O)O)C(=O)NCC(=O)N[C@H](CO)C(=O)N[C@@H]([C@H](C)CC(=O)O)C(=O)N[C@@H](CC(=O)c2ccccc2N)C(=O)O[C@@H]1C` [Daptomycin], the “In vitro anti-ZIKV effects” value with ZIKV [1] is listed as “in vitro anti-ZIKV effects”.
As for `CC[C@H](C)[C@H]1O[C@]2(CC[C@@H]1C)C[C@@H]1C[C@@H](C/C=C(\C)[C@@H](O[C@H]3C[C@H](OC)[C@@H](O[C@H]4C[C@H](OC)[C@@H](O)[C@H](C)O4)[C@H](C)O3)[C@@H](C)/C=C/C=C3\CO[C@@H]4[C@H](O)C(C)=C[C@@H](C(=O)O1)[C@]34O)O2` [Ivermectin], in the series on ZIKV [1], the “In vitro anti-ZIKV effects” value is recorded as “in vitro anti-ZIKV effects”.
With `OC(c1cc(C(F)(F)F)nc2c(C(F)(F)F)cccc12)C1CCCCN1` (centres unmarked) [Mefloquine], the “In vitro anti-ZIKV effects” value in the series on ZIKV [1] was “in vitro anti-ZIKV effects”.
Regarding Octreotide acetate, on ZIKV NS2B-NS3 protease, the “Effect of increasing drug concentrations” value is listed as “dose-dependent reduction in protease activity”.
